{"source": "paper PMC4628094", "about": "“In Vitro Assessment of Uptake and Lysosomal Sequestration of Respiratory Drugs in Alveolar Macrophage Cell Line NR8383” (Pharmaceutical Research, 2015)", "key": {"[1]": {"test_system": "Liver tissue slices from male Sprague-Dawley rats", "design": "method as in ref (3) (a number printed in a supplementary file, which may have a reference list of its own: not looked up in the article's list)", "conditions": "NH4Cl 20 mM, desipramine 5 µM, chloroquine 10 µM, 60 min, ref (3); cited from earlier work"}, "[2]": {"test_system": "Lung tissue slices from male Sprague-Dawley rats", "conditions": "desipramine, diazepam 5 µM, chloroquine, thiopental 10 µM, 60 min, ref (3), cited from earlier work"}, "NR8383 cells [3]": {"test_system": "NR8383 cells", "experiment": "Drug uptake in NR8383 at 37 and 4°C (CLuptake, CLdiff, Kp)", "conditions": "NR8383, 5 μM; CLdiff relative to CLuptake"}, "[4]": {"experiment": "Drug uptake in NR8383 at 37 and 4°C (CLuptake, CLdiff, Kp)", "conditions": "rat"}, "NR8383 cells [5]": {"test_system": "NR8383 cells", "conditions": "high drug concentrations (50 and 100 μM per method), not stated at the place"}, "NR8383 cells [6]": {"test_system": "NR8383 cells", "experiment": "Lysosomal sequestration studies in NR8383 with NH4Cl, monensin and nigericin", "conditions": "for % Reduction in Kp by NH4Cl: NH4Cl 20 mM"}, "[7]": {"experiment": "Lysosomal sequestration studies in NR8383 with NH4Cl, monensin and nigericin", "conditions": "rat; for Kp at 10 min, 5 μM: NR8383, 5 μM drug; for Kp at 10 min, 20 µM: NR8383, 20 µM drug"}, "[8]": {"experiment": "Physicochemical properties, experimental literature values (Table I)", "conditions": "classification in Table I"}, "[9]": {"conditions": "experimental value; ref ([21])-([30]) per drug, Table I; cited from earlier work"}, "NR8383 cells [10]": {"test_system": "NR8383 cells", "experiment": "Accumulation (Kp) in NR8383 over a concentration range, two-site binding model", "conditions": "apparent saturable uptake equilibrium constant, two-site binding model, control"}, "[11]": {"experiment": "Accumulation (Kp) in NR8383 over a concentration range, two-site binding model", "conditions": "rat, control"}, "[12]": {"test_system": "Mouse peritoneal macrophages", "design": "method as in ref (1) (a number printed in a supplementary file, which may have a reference list of its own: not looked up in the article's list)", "conditions": "drug 50 µM, 120 min, ref (1), cited from earlier work"}, "[13]": {"test_system": "Brain slices from male Wistar rats", "design": "method as in ref (10) (a number printed in a supplementary file, which may have a reference list of its own: not looked up in the article's list)", "conditions": "drug 5 µM, 60 min, ref (10), cited from earlier work"}, "[14]": {"test_system": "Liver tissue slices from male Wistar rats", "design": "method as in ref (14) (a number printed in a supplementary file, which may have a reference list of its own: not looked up in the article's list)", "conditions": "monensin 10 µM, drug 5 µM, 60 min, ref (14); cited from earlier work"}, "[15]": {"test_system": "Lung tissue slices from male Wistar rats", "design": "method as in ref (5) (a number printed in a supplementary file, which may have a reference list of its own: not looked up in the article's list)", "conditions": "NH4Cl 20 mM, drug 5 µM, 60 min, ref (5); cited from earlier work"}, "[16]": {"test_system": "Lung tissue slices from male Wistar rats", "design": "method as in ref (14) (a number printed in a supplementary file, which may have a reference list of its own: not looked up in the article's list)", "conditions": "monensin 10 µM, drug 5 µM, 60 min, ref (14); cited from earlier work"}, "[17]": {"test_system": "Liver tissue slices from male Wistar rats", "design": "method as in ref (5) (a number printed in a supplementary file, which may have a reference list of its own: not looked up in the article's list)", "conditions": "NH4Cl 20 mM, drug 5 µM, 60 min, ref (5); cited from earlier work"}, "[18]": {"test_system": "Lung tissue slices from male Wistar rats", "design": "method as in ref (7) (a number printed in a supplementary file, which may have a reference list of its own: not looked up in the article's list)", "conditions": "NH4Cl 3 mg/min/kg (i.v. infusion), drug 3.2 mg/kg (i.v. injection), 360 min, ref (7); cited from earlier work"}, "[19]": {"test_system": "Liver tissue slices from male Wistar rats", "design": "method as in ref (7) (a number printed in a supplementary file, which may have a reference list of its own: not looked up in the article's list)", "conditions": "NH4Cl 3 mg/min/kg (i.v. infusion), drug 3.2 mg/kg (i.v. injection), 360 min, ref (7); cited from earlier work"}, "[20]": {"test_system": "Lung granule fraction containing lysosomes from male Wistar rats", "design": "method as in ref (6) (a number printed in a supplementary file, which may have a reference list of its own: not looked up in the article's list)", "conditions": "NH4Cl 10 mM, drug 1 µM, 10 min; ref (6); cited from earlier work"}}, "note": "Read-outs that look alike come from different tables or passages of the source.", "data": [{"smiles": "CNCCCN1c2ccccc2CCc2ccccc21", "note": "[Desipramine]", "values": [{"measurement": "Reduction in total uptake (%)", "setting": "[1]", "result": 15, "unit": "%"}, {"measurement": "Reduction in total uptake (%)", "setting": "[2]; NH4Cl 20 mM", "result": 23, "unit": "%"}, {"measurement": "Reduction of total uptake (%)", "setting": "[2]; monensin 10 µM", "result": 12, "unit": "%"}]}, {"smiles": "COc1ccc(CC(C)NCC(O)c2ccc(O)c(NC=O)c2)cc1", "note": "(centres unmarked) [Formoterol]", "values": [{"measurement": "Contribution of passive (%)", "setting": "NR8383 cells [3]", "result": 3.71, "unit": "%"}, {"measurement": "Kp at 10 min, 5 μM", "setting": "[4]", "result": "24.5 ± 8.71"}, {"measurement": "cytotoxicity (LDH) compared to positive control", "setting": "NR8383 cells [5]", "result": "less than 5%"}, {"measurement": "% Reduction in Kp by NH4Cl", "setting": "NR8383 cells [6]; NR8383, 5 μM drug", "result": "24 ± 9.0", "unit": "%"}, {"measurement": "% Reduction in Kp by Monensin", "setting": "NR8383 cells [6]; NR8383, 5 μM drug, monensin 5 μM, 5 min", "result": "40 ± 7.5", "unit": "%"}, {"measurement": "% Reduction in Kp by Nigericin", "setting": "NR8383 cells [6]; NR8383, 5 μM drug, nigericin 10 μM, 5 min", "result": "27 ± 5.1", "unit": "%"}, {"measurement": "% Reduction in Kp by NH4Cl", "setting": "NR8383 cells [6]; NR8383, 20 µM drug", "result": "27 ± 8.1", "unit": "%"}, {"measurement": "% Reduction in CLuptake by Monensin (5 µM)", "setting": "NR8383 cells [6]; NR8383, at 5 µM drug", "result": "41 ± 5.6", "unit": "%"}, {"measurement": "% Reduction in CLuptake by NH4Cl (20 mM)", "setting": "NR8383 cells [6]; NR8383, at 5 µM drug", "result": "25 ± 14", "unit": "%"}, {"measurement": "% Reduction in CLuptake by Nigericin (10 µM)", "setting": "NR8383 cells [6]; NR8383, at 5 µM drug", "result": "19 ± 12", "unit": "%"}, {"measurement": "% Reduction in CLuptake by NH4Cl (20 mM)", "setting": "NR8383 cells [6]; NR8383, at 20 µM drug", "result": "27 ± 13", "unit": "%"}, {"measurement": "reduction in Kp in the presence of chemical agents (summary in Discussion)", "setting": "NR8383 cells [6]; NR8383, NH4Cl, monensin, nigericin", "result": "20–40%"}, {"measurement": "Kp at 10 min, 5 μM", "setting": "[7]; Kp + NH4Cl, 20 mM NH4Cl co-incubated, 10 min", "result": "15.5 ± 1.16"}, {"measurement": "Kp at 10 min, 20 µM", "setting": "[7]; Kp + NH4Cl, 20 mM NH4Cl", "result": "19.2 ± 4.13"}, {"measurement": "Kp at 10 min, 5 μM", "setting": "[7]; Kp Control, control", "result": "20.8 ± 3.6"}, {"measurement": "Kp at 10 min, 20 µM", "setting": "[7]; Kp Control, control", "result": "26.5 ± 6.54"}, {"measurement": "Acid–base Property", "setting": "[8]", "result": "Base"}, {"measurement": "LogD7.4", "setting": "[9]", "result": 2.60}, {"measurement": "KU1", "setting": "NR8383 cells [10]", "result": "1.54 ± 0.49", "unit": "µM"}, {"measurement": "Kp at 10 min", "setting": "[11]; Kp,max, sum of Kp,U1,max and Kp,min", "result": 69}, {"measurement": "Kp at 10 min", "setting": "[11]; Kp,min, NR8383, 37°C, concentration range, two-site binding model", "result": "10 ± 0.92"}]}, {"smiles": "CN", "note": "[Methylamine]", "values": [{"measurement": "Reduction in total uptake (%)", "setting": "[12]; NH4Cl 10 mM", "result": 54, "unit": "%"}, {"measurement": "Reduction of total uptake (%)", "setting": "[12]; nigericin 5 µg/ml (~7 µM)", "result": 49, "unit": "%"}]}, {"smiles": "CN(C)CCCN1c2ccccc2Sc2ccccc21", "note": "[Promazine]", "values": [{"measurement": "Reduction in total uptake (%)", "setting": "[13]; NH4Cl 20 mM", "result": 20, "unit": "%"}, {"measurement": "Reduction of total uptake (%)", "setting": "[13]; monensin 10 µM", "result": 35, "unit": "%"}, {"measurement": "Reduction of total uptake (%)", "setting": "[14]", "result": 86, "unit": "%"}, {"measurement": "Reduction in total uptake (%)", "setting": "[15]", "result": 46.8, "unit": "%"}, {"measurement": "Reduction of total uptake (%)", "setting": "[16]", "result": 71, "unit": "%"}, {"measurement": "Reduction in total uptake (%)", "setting": "[17]", "result": 59, "unit": "%"}]}, {"smiles": "OC(CCN1CCCCC1)(c1ccccc1)C1CCCCC1", "note": "(centres unmarked) [Trihexyphenidyl]", "values": [{"measurement": "Reduction in total uptake (%)", "setting": "[18]", "result": 68, "unit": "%"}, {"measurement": "Reduction in total uptake (%)", "setting": "[19]", "result": 11, "unit": "%"}, {"measurement": "Reduction in total uptake (%)", "setting": "[20]", "result": 54, "unit": "%"}]}]}
